Laboratory results reported in patent publication US5695970A, “Glucan lyase producing 1,5-anhydrofructose” (priority 1992, dated 1997).
“Also recorded” adds a separate entry of the source.

Key:
α-1,4-glucan lyase [1] = assay: Inhibition studies of α-1,4-glucan lyase activity; assay type: biochemical, Gracilariopsis lemaneiformis; settings: for inhibition of enzymic activity: 0.1M; for inhibition of the degradation of maltose: 3 mg/ml polysaccharide
Procedure: (§1) The reaction mixture for the assay of α-1,4-glucan lyase was composed of 240 μl 62.5 mM Mops-NaOH containing 6 mg soluble starch (pH 6.2), the enzyme preparation and distilled water to a final volume of 300 μl. The reaction was carried out at 30° C. for 10-30 min. Liberated 1,5-anhydrofructose was determined by monitoring the absorbance at 546 nm after the addition of 3,5-dinitrosalicylic acid reagent. Soluble starch in the reaction mixture may be replaced by other substrates and the final substrate concentration may be varied as indicated in the text. The reaction time and enzyme concentration used in enzyme activity assay have been chosen to ensure the linearity of the reaction rate. One unit of α-1,4-glucan lyase activity is defined as the amount of enzyme which liberates 1μmol of 1,5-anhydrofructose min^-1 under the conditions described above.

α-1,4-glucan lyase [2] = assay: Reaction mode: complete degradation of substrates by the lyase and final products; assay type: biochemical, Gracilariopsis lemaneiformis
Procedure: In an enzyme concentration of 6 μg protein per ml, at 30° C., the time needed for a complete degradation of 1% maltose solution was 1 h, for 2% maltose solution, 3 h, for 5% maltose solution, 10-24 h, for 2% maltoheptaose, 10-24 h. This is in sharp contrast to many polysaccharides' depolymerization enzymes, whose reaction stops with the accumulation of products or with the decrease in substrate size.
When maltoheptaose was used as a substrate, the final products are 1,5-anhydrofructose and glucose and their ratio is 6:1. The intermediate products are a mixture of maltosaccharides with a DP number between 2-6 during the process of the reaction. With the increase of reaction time, the DP number of the maltosaccharides decreased and finally all the maltosaccharides disappeared. When maltose was used as a substrate, the ratio of 1,5-anhydrofructose to glucose was 1:1. With the increase of DP number, the yield of glucose decreased, while the yield of 1,5-anhydrofructose increased. When a linear chain of a α-1,4-glucan is long enough, the yield of 1,5-anhydrofructose can be nearly 100%.

α-1,4-glucan lyase [3] = assay: Substrate specificity of α-1,4-glucan lyase (release of 1,5-anhydrofructose, DNS method, 15 min); assay type: biochemical, Gracilariopsis lemaneiformis; settings: for substrate inhibition: higher substrate concentrations, 10 mg ml^-1 compared with 2 and 4 mg ml^-1
Procedure: When amylopectin was used as a substrate, the activity reached maximum 8 mg ml^-1 and then decreased slightly at 20 mg ml^-1. The same results were obtained with soluble starch and maltoheptaose. When maltotriose and maltose were used as substrates, the activity reached maximum at 2 mg ml^-1 and 6 mg ml^-1, respectively. Substrate inhibition became evident at higher concentrations, especially in the case of maltotriose. […] Generally, the inhibition degree decreased with the increase in DP number (Degree of Polymerization). When the activity measured at 10 mg ml^-1 was compared at 2 mg ml^-1 and 4 mg ml^-1, substrate inhibition could be clearly seen among the maltosaccharides of DP 3-5. In maltohexaose, the substrate inhibition was very low and was none in maltoheptaose. Among the maltosaccharides, maltotetraose and maltopentaose were the poorest substrates.
With PNPG1 (p-nitrophenyl-α-D-glucoside), the artificial substrate of α-glucosidase, reaction rate was the lowest.
Substrate Specificity of α-1,4-Glucan lyase.
The concentration of various substrates in the reaction mixture
was 10 mg ml^-1 except PNPG1, PNPG2, PNPG7, which was 2 mM.
The incubation time was 15 min. The degrading rate of maltoheptaose
was 84 μmol min^-1. mg^-1 protein.
as §1

α-1,4-glucan lyase [4] = assay: Substrate specificity of α-1,4-glucan lyase, long term incubation (24 h), continuation of Table IV; assay type: biochemical, Gracilariopsis lemaneiformis
Procedure: The incubation time was 24 h.
as §1

α-1,4-glucan lyase [5] = assay: Elution of α-1,4-glucan lyase from the starch column by glucans; assay type: binding, Gracilariopsis lemaneiformis; settings: glucan 8 mg ml^-1; column 1 ml, 5 ml eluate; recovery with amylopectin = 100%
Procedure: In these experiments, as much as 5 times of the column volume was collected. At high pH, for example, 50 mM bicine-NaOH (pH 8.2), the binding of the enzyme onto the starch column was loose and it was eluted by subsequent washing with the same buffer. Neither ConA-Sepharose nor cycloheptaamylose-Sepharose 6B was effective for the purification of the enzyme because of low recovery.
The efficiency of various glucans (8 mg ml^-1) on the elution of
α-1,4-glucan lyase from the starch column. The column volume
was 1 ml and 5 ml eluate was pooled. The recovery of
α-1,4-glucan lyase eluted by amylopectin was used as 100%.
Gracilariopsis lemaneiformis (originally collected from China), 30 g, was sampled directly from the culture cylinder and was rinsed briefly with deionized water and blotted dry with paper tissue. The following operations were carried out at 0°-4° C. The thalli were cut to pieces with scissors and pulverized under liquid nitrogen. To 1 g alga powder was added 3 volumes of buffer A (50 mM citrate-NaOH, pH 6.6), filtered through two-layer cloth and centrifuged at 36,600×g for 10 min. The supernatant (cell-free extract) was loaded onto a starch column (4.1×1.5 cm) pre-equilibrated with buffer A. After loading, the column was extensively washed with 4 volumes of buffer A, volumes of buffer A containing 1M NaCl, 1 volume of buffer A, 1 volume of buffer B (50 mM imidazole-HCl, pH 6.6) in a flow speed of 24 ml h^-1. α-1,4-Glucan lyase was eluted with buffer B containing 10 mg ml^-1 amylopectin in a fraction size of 3.5 ml. To separate α-1,4-glucan lyase from the amylopectin, the active fractions of the eluate were pooled and applied onto a Q-Sepharose column (2.6×5 cm). The column was pre-equilibrated and later washed with buffer B. α-1,4-Glucan lyase was eluted with buffer B containing 0.7M NaCl. Active fractions were pooled and concentrated on a Centriprep CP30 (Amicon, USA) with a molecule weight cutoff of 30,000 and applied to a Sephacryl S-200 column (2.6×80 cm) pre-equilibrated and eluted with buffer A containing 0.2M NaCl. The flow speed was 60 ml h^-1 with a fraction size of 3.5 ml per tube. Active fractions were collected and concentrated again by using centriprep CP30.

[6] = substrate 2 mM, incubation 15 min
[7] = substrate 10 mg ml^-1, incubation 15 min

OC[C@H]1OC(O)[C@@H](O)[C@@H](O)[C@@H]1O (stereo partly shown) [mannose]
inhibition of enzymic activity (α-1,4-glucan lyase [1]; amylopectin as substrate): no inhibition | inhibition of enzymic activity (α-1,4-glucan lyase [1]; maltose as substrate): no inhibition | conversion of monosaccharide to 1,5-anhydrofructose by the lyase (α-1,4-glucan lyase [2]): can not convert

O=[N+]([O-])c1ccc(O[C@H]2O[C@H](CO)[C@@H](O[C@H]3O[C@H](CO)[C@@H](O[C@H]4O[C@H](CO)[C@@H](O[C@H]5O[C@H](CO)[C@@H](O[C@H]6O[C@H](CO)[C@@H](O[C@H]7O[C@H](CO)[C@@H](O[C@H]8O[C@H](CO)[C@@H](O)[C@H](O)[C@H]8O)[C@H](O)[C@H]7O)[C@H](O)[C@H]6O)[C@H](O)[C@H]5O)[C@H](O)[C@H]4O)[C@H](O)[C@H]3O)[C@H](O)[C@H]2O)cc1 [PNPG7, p-nitrophenyl-α-D-maltoheptaoside]
Activity (% of Maltoheptaose) (α-1,4-glucan lyase [3]; [6]): 100.0%

OC[C@H]1O[C@H](O[C@H]2[C@H](O)[C@@H](O)[C@@H](O[C@H]3[C@H](O)[C@@H](O)[C@@H](O[C@H]4[C@H](O)[C@@H](O)[C@@H](O[C@H]5[C@H](O)[C@@H](O)[C@@H](O[C@H]6[C@H](O)[C@@H](O)C(O)O[C@@H]6CO)O[C@@H]5CO)O[C@@H]4CO)O[C@@H]3CO)O[C@@H]2CO)[C@H](O)[C@@H](O)[C@@H]1O (stereo partly shown) [Maltohexaose, maltohexaose]
substrate inhibition (α-1,4-glucan lyase [3]): very low | Activity (% of Maltoheptaose) (α-1,4-glucan lyase [3]; [7]): 74.6%

floridean starch
Activity (% of Maltoheptaose) (α-1,4-glucan lyase [3]; [7]): 61.9%

O=C(CO)[C@@H](O)[C@H](O)[C@H](O)CO [fructose]
inhibition of enzymic activity (α-1,4-glucan lyase [1]; amylopectin as substrate): no inhibition | inhibition of enzymic activity (α-1,4-glucan lyase [1]; maltose as substrate): no inhibition | conversion of monosaccharide to 1,5-anhydrofructose by the lyase (α-1,4-glucan lyase [2]): can not convert

OC[C@H]1O[C@H](O[C@H]2[C@H](O)[C@@H](O)[C@@H](O[C@H]3[C@H](O)[C@@H](O)C(O)O[C@@H]3CO)O[C@@H]2CO)[C@H](O)[C@@H](O)[C@@H]1O (stereo partly shown) [Maltotriose, maltotriose]
substrate concentration at which the activity reached maximum (α-1,4-glucan lyase [3]): 2 mg/mL | substrate inhibition (α-1,4-glucan lyase [3]): showed substrate inhibition | Activity (% of Maltoheptaose) (α-1,4-glucan lyase [3]; [7]): 39.1%

β-limit dextrin
Activity (% of Maltoheptaose) (α-1,4-glucan lyase [3]; [7]): 22.7%

O=[N+]([O-])c1ccc(O[C@H]2O[C@H](CO)[C@@H](O)[C@H](O)[C@H]2O)cc1 [PNPG1, p-nitrophenyl-α-D-glucoside]
Activity (% of Maltoheptaose) (α-1,4-glucan lyase [3]; [6]): 0.113%

pullulan
activity of the lyase with the substrate (in words) (α-1,4-glucan lyase [4]; long term incubation at 30° C.): no detectable activity; also recorded: little or no activity | Product released (α-1,4-glucan lyase [4]; substrate 4 mg ml^-1, 1.64 μg enzyme, 24 h): 0 nmol | inhibition of the degradation of maltose (α-1,4-glucan lyase [1]; maltose as substrate): did not inhibit | Elution Efficiency (α-1,4-glucan lyase [5]): 32.3%

O=[N+]([O-])c1ccc(O[C@H]2O[C@H](CO)[C@@H](O[C@H]3O[C@H](CO)[C@@H](O)[C@H](O)[C@H]3O)[C@H](O)[C@H]2O)cc1 [PNPG2, p-nitrophenyl-α-D-maltoside]
Activity (% of Maltoheptaose) (α-1,4-glucan lyase [3]; [6]): 22.5%

OC[C@H]1O[C@H](O[C@H]2[C@H](O)[C@@H](O)[C@@H](O[C@H]3[C@H](O)[C@@H](O)[C@@H](O[C@H]4[C@H](O)[C@@H](O)[C@@H](O[C@H]5[C@H](O)[C@@H](O)C(O)O[C@@H]5CO)O[C@@H]4CO)O[C@@H]3CO)O[C@@H]2CO)[C@H](O)[C@@H](O)[C@@H]1O (stereo partly shown) [Maltopentaose, maltopentaose]
substrate inhibition (α-1,4-glucan lyase [3]): showed substrate inhibition | Activity (% of Maltoheptaose) (α-1,4-glucan lyase [3]; [7]): 36.6%

OC[C@H]1OC(O)[C@H](O)[C@@H](O)[C@H]1O (stereo partly shown) [galactose]
inhibition of enzymic activity (α-1,4-glucan lyase [1]; amylopectin as substrate): no inhibition | inhibition of enzymic activity (α-1,4-glucan lyase [1]; maltose as substrate): no inhibition | conversion of monosaccharide to 1,5-anhydrofructose by the lyase (α-1,4-glucan lyase [2]): can not convert

amylopectin
substrate concentration at which the activity reached maximum (α-1,4-glucan lyase [3]): 8 mg/mL | Activity (% of Maltoheptaose) (α-1,4-glucan lyase [3]; [7]): 94.1% | inhibition of the degradation of maltose (α-1,4-glucan lyase [1]; maltose as substrate): around 67% | type of inhibition (α-1,4-glucan lyase [1]; maltose as substrate): mixed competive/non-competive | inhibition of the algal enzyme (in words) (α-1,4-glucan lyase [1]; summary statement, maltose as substrate): inhibited | Elution Efficiency (α-1,4-glucan lyase [5]): 100%

OC[C@H]1OC(O)[C@H](O)[C@@H](O)[C@@H]1O (stereo partly shown) [Glucose, glucose]
inhibition of enzymic activity (α-1,4-glucan lyase [1]; amylopectin as substrate): no inhibition | inhibition of enzymic activity (α-1,4-glucan lyase [1]; maltose as substrate): around 22% | product inhibition: effect on enzyme reaction rate (α-1,4-glucan lyase [1]; products accumulating during the enzyme reaction): negligible effect | Elution Efficiency (α-1,4-glucan lyase [5]): 0% | conversion of monosaccharide to 1,5-anhydrofructose by the lyase (α-1,4-glucan lyase [2]): can not convert

OC[C@H]1O[C@H](O[C@H]2[C@H](O)[C@@H](O)[C@@H](O[C@H]3[C@H](O)[C@@H](O)[C@@H](O[C@H]4[C@H](O)[C@@H](O)C(O)O[C@@H]4CO)O[C@@H]3CO)O[C@@H]2CO)[C@H](O)[C@@H](O)[C@@H]1O (stereo partly shown) [Maltotetraose, maltotetraose]
substrate inhibition (α-1,4-glucan lyase [3]): showed substrate inhibition | Activity (% of Maltoheptaose) (α-1,4-glucan lyase [3]; [7]): 27.8% | Elution Efficiency (α-1,4-glucan lyase [5]): 65.7%

OC[C@H]1O[C@H](O[C@H]2[C@H](O)[C@@H](O)[C@@H](O[C@H]3[C@H](O)[C@@H](O)[C@@H](O[C@H]4[C@H](O)[C@@H](O)[C@@H](O[C@H]5[C@H](O)[C@@H](O)[C@@H](O[C@H]6[C@H](O)[C@@H](O)[C@@H](O[C@H]7[C@H](O)[C@@H](O)C(O)O[C@@H]7CO)O[C@@H]6CO)O[C@@H]5CO)O[C@@H]4CO)O[C@@H]3CO)O[C@@H]2CO)[C@H](O)[C@@H](O)[C@@H]1O (stereo partly shown) [Maltoheptaose, maltoheptaose]
substrate inhibition (α-1,4-glucan lyase [3]): none | Activity (% of Maltoheptaose) (α-1,4-glucan lyase [3]; [7]): 100.0% | degrading rate (α-1,4-glucan lyase [3]; [7]): 84 μmol min^-1. mg^-1 protein | Elution Efficiency (α-1,4-glucan lyase [5]): 94.3% | time needed for a complete degradation (α-1,4-glucan lyase [2]; 2% maltoheptaose, enzyme 6 μg protein per ml, 30° C.): 10 to 24 h

soluble starch
Activity (% of Maltoheptaose) (α-1,4-glucan lyase [3]; [7]): 100.2%

amylose
Activity (% of Maltoheptaose) (α-1,4-glucan lyase [3]; [7]): 100.4%

glycogen
Activity (% of Maltoheptaose) (α-1,4-glucan lyase [3]; [7]): 77.6% | inhibition of the degradation of maltose (α-1,4-glucan lyase [1]; maltose as substrate): ~47% | Elution Efficiency (α-1,4-glucan lyase [5]): 87.1%
